Consider ten compounds from PMC10455244, “Alpha-Mangostin: A Potent Inhibitor of TRPV3 and Pro-Inflammatory Cytokine Secretion in Keratinocytes” (International Journal of Molecular Sciences, 2023).

The test system of one data set is TRPV3. Conditions: read-out: IC50 (µM), channel inhibited TRPV3; cited from earlier work.
The subject of another data set is TRPV1. Conditions: read-out: IC50 (µM), channel inhibited TRPV1; cited from earlier work.
The subject of a further data set is TRPV2. More on the design: method as in PMID 28333079. Conditions: read-out: IC50 (µM), channel inhibited TRPV2; cited from earlier work.
For a further data set, the system named is TRPV3 (WT). Put plainly: in vitro. Format: cell-based, human. Conditions: human.
A further data set has as its system IL-8. In words: ELISA, carvacrol-induced IL-8 release in NHEK. Conditions: 300 µM carvacrol alone, 24 h. Format: cell-based, human. The text has this: (§1) Constitutive activation of TRPV3 due to continuous stimulation or the presence of Olmsted mutations causes noticeable skin inflammation due to the increased secretion of pro-inflammatory cytokines from the keratinocytes. Besides, in atopic dermatitis (AD), cytokine release from keratinocytes contributes to the inflammatory environment, which drives many characteristic AD symptoms. Therefore, we determined the effect of TRPV3 activation on cytokine release instead of TRPV3 expression and evaluated whether alpha-mangostin suppressed TRPV3-mediated cytokine secretion in normal human keratinocytes. The levels of secreted cytokines (interleukin (IL)-6, IL-8, and tumor necrosis factor-alpha (TNF-α)) were measured using enzyme-linked Immunosorbent assay (ELISA) kits due to their high sensitivity and quantitation ability. The cells were induced with 300 µM carvacrol, with or without 1 µM alpha-mangostin, and 10 µM 74a.
(§2) Figure 5 Alpha-mangostin (α-MG) inhibited carvacrol-induced cytokine release in NHEK cells and rescued carvacrol-induced cell death. (A) Alpha-mangostin inhibited the carvacrol-induced release of IL-8 and IL-6 in NHEK. Cells were induced by 300 µM carvacrol with or without either 1 µM alpha-mangostin or 10 µM 74a for 24 h before the ELISA assay. (B) Alpha-mangostin reduced cell death caused by carvacrol in human keratinocytes. […]

The subject of another data set is IL-6. Put plainly: ELISA, carvacrol-induced IL-6 release in NHEK. Format: cell-based, human. Conditions: 300 µM carvacrol alone, 24 h, not significant.
From the text: as §1, §2
For orientation: An ELISA detects its analyte on a solid surface through an enzyme-linked reagent.

The next data set has as its system TNF-α. Put plainly: ELISA, TNF-α release in NHEK. The format is cell-based, human. Conditions: 300 µM carvacrol alone, 24 h.
From the text: as §1, §2

For the next data set, the target named is T1, TRPA1 (Homo sapiens, UniProt O75762).
T1 construct: host or cells: HEK 293T (transient transfection)
The settings on record: read-out: IC50 (µM), channel inhibited TRPA1; cited from earlier work.

T1 sequence (O75762 whole entry, species assumed): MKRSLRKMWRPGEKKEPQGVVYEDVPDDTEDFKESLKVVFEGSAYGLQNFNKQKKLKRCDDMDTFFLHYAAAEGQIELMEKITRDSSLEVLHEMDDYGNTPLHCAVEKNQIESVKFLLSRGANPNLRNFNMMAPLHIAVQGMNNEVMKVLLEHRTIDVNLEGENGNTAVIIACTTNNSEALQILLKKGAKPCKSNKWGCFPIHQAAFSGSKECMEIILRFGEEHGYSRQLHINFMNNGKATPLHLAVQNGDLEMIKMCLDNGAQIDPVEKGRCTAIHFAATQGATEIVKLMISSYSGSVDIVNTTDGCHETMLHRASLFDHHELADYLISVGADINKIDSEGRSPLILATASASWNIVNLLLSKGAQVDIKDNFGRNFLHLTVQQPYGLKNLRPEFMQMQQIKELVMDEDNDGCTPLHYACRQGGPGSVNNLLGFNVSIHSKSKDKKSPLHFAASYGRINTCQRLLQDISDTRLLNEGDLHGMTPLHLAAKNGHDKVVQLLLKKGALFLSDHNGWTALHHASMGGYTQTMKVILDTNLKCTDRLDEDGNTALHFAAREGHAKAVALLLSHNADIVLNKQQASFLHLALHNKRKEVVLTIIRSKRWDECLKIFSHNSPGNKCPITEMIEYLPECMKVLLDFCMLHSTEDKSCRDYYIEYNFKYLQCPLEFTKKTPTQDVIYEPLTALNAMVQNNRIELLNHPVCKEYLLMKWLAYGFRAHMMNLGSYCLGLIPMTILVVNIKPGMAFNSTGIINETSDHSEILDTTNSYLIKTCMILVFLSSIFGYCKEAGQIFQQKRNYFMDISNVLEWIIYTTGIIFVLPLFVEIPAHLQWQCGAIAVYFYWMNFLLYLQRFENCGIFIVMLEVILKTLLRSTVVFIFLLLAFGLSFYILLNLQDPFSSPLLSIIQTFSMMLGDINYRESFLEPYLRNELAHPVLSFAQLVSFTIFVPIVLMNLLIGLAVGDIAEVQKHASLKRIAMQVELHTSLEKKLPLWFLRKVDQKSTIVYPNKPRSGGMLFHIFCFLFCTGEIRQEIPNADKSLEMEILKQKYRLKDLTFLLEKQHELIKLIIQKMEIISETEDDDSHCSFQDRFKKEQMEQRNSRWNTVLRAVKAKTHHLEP

What is called IC50 is the midpoint of a concentration-inhibition curve. With Forsythoside B, the IC50 in the data set on TRPV3 was 6.7 ± 0.7 µM.

For the compound `C[C@@H]1O[C@@H](O[C@@H]2[C@@H](O)[C@H](OCCc3ccc(O)c(O)c3)O[C@H](CO)[C@H]2OC(=O)/C=C/c2ccc(O)c(O)c2)[C@H](O)[C@H](O)[C@H]1O` [Verbascoside], the IC50 in the data set on TRPV3 was 14.1 ± 3.3 µM. On to `O=C(C=Cc1ccc(O)c(O)c1)OC1CC(O)(C(=O)O)CC(O)C1OC(=O)C=Cc1ccc(O)c(O)c1` (stereo not shown) [Isochlorogenic acid B], for which the IC50 with TRPV3 was 0.9 ± 0.3 µM. For `CCC=CC1CCC2(CC3CCC4C(C(=O)OCCCCCCCCCCCCCCCC(=O)N(CCCN)CCCCN)C5(CCCC(C)O5)NC(=[N+]34)N2)O1` (stereo not shown) [Monanchomycalin B], the results for the IC50 in the data set with TRPV1, with TRPV3 and in the data set with TRPV2 were 6.02 ± 0.36 µM, 3.25 ± 0.6 µM and 2.84 ± 1.01 µM, respectively. For orientation: viability means a read-out of living cells in per cent, often relative to untreated cells. Read a high viability as better survival. `Cc1ccc(C(C)C)cc1O` [carvacrol, reference compound]: in the data set on TRPV3 (WT), the viability at 24 h, 300 µM came out at 75.6%. For the same compound, the “Effect on IL-8 release” value in the data set on IL-8 was “significantly stimulated”. In addition, in the data set on IL-6, the “Effect on IL-6 secretion” value is listed as “slight increase”. Also, the “Effect on TNF-α levels” value in the data set with TNF-α is recorded as “non-significant effect”. `COc1ccc2ccc(=O)oc2c1CC=C(C)C` [Coumarin osthole]: in the data set with TRPV3, the IC50 is 37 ± 1.9 µM. Take `COc1c(O)cc(O)c2c(=O)c3cccc(O)c3n(C)c12` [Citrusinine II]: the IC50 in the data set with TRPV3 was 12.4 ± 1.86 µM.

On to `O=C(/C=C/c1ccc(O)c(O)c1)O[C@@H]1CC(O)(C(=O)O)C[C@@H](OC(=O)/C=C/c2ccc(O)c(O)c2)C1O` (stereo partly shown) [Isochlorogenic acid A], for which the IC50 in the data set on TRPV3 is 2.7 ± 1.3 µM. On to Pulchranin A, for which the IC50 in the data set with TRPV1 is 27.5 ± 1.4 µM; in the data set on TRPV3, 71.8 ± 9.4 µM; at TRPA1, 174 ± 7.4 µM.

As for Pulchranin C, the IC50 is 183 ± 27 µM in the data set on TRPV1, above 200 µM in the data set with TRPV3 and above 200 µM at TRPA1.
